Data from ChEMBL document CHEMBL3885881, “DrugMatrix”.

Species on record: Rattus norvegicus
Assay: DrugMatrix - Regimen: Daily Repeat
Assay type: toxicity, organism-based, Sprague-Dawley
Set-up: regimen Daily Repeat, gender Male, age 6-8 weeks
Conditions: in vivo, po, route oral GAVAGE, vehicle .5 % CMC; for BASOPHIL / EOSINOPHIL / ERYTHROCYTE COUNT / HEMATOCRIT / HEMOGLOBIN / LEUKOCYTE COUNT / LYMPHOCYTE / MEAN CORPUSCULAR HEMOGLOBIN / MEAN CORPUSCULAR HEMOGLOBIN CONCENTRATION / MEAN CORPUSCULAR VOLUME / MONOCYTE / NEUTROPHIL / PLATELET COUNT: tissue Blood; for ALANINE AMINOTRANSFERASE / ALBUMIN / ALKALINE PHOSPHATASE / ASPARTATE AMINOTRANSFERASE / BLOOD UREA NITROGEN / CHLORIDE / CHOLESTEROL / CREATINE PHOSPHOKINASE / CREATININE / GLUCOSE / PHOSPHORUS / POTASSIUM / SODIUM / TOTAL BILIRUBIN / TOTAL PROTEIN: tissue Plasma
[1] = 0 mg/kg, 72 h, dose level Control, time 3 day
[2] = 0 mg/kg, 120 h, dose level Control, time 5 day
[3] = 75 mg/kg, 72 h, dose level High, time 3 day
[4] = 75 mg/kg, 120 h, dose level High, time 5 day
[5] = […], 72 h, dose 7.5 mg/Kg, dose level Low, time 3 day
[6] = […], 120 h, dose 7.5 mg/Kg, dose level Low, time 5 day

COc1ccc(C2C(=O)c3ccccc3C2=O)cc1 [ANISINDIONE]
BASOPHIL [1]: 0% | EOSINOPHIL [1]: 0% | ERYTHROCYTE COUNT [1]: 6.19 x10E6/uL | HEMATOCRIT [1]: 36.94% | HEMOGLOBIN [1]: 14.58 G/DL | LEUKOCYTE COUNT [1]: 11.54 x10E3/uL | LYMPHOCYTE [1]: 84.8% | MEAN CORPUSCULAR HEMOGLOBIN [1]: 23.58 pg | MEAN CORPUSCULAR HEMOGLOBIN CONCENTRATION [1]: 39.44 G/DL | MEAN CORPUSCULAR VOLUME [1]: 59.76 fL | MONOCYTE [1]: 1.4% | NEUTROPHIL [1]: 13.8% | PLATELET COUNT [1]: 1068.8 x10E3/uL | ALANINE AMINOTRANSFERASE [1]: 38.17 u/L | ALBUMIN [1]: 3.88 G/DL | ALKALINE PHOSPHATASE [1]: 391.33 u/L | ASPARTATE AMINOTRANSFERASE [1]: 69.83 u/L | BLOOD UREA NITROGEN [1]: 15 mg/dL | CHLORIDE [1]: 104.17 MEQ/L | CHOLESTEROL [1]: 72.17 mg/dL | CREATINE PHOSPHOKINASE [1]: 174.33 u/L | CREATININE [1]: 0.58 mg/dL | GLUCOSE [1]: 192.67 mg/dL | PHOSPHORUS [1]: 10.52 mg/dL | POTASSIUM [1]: 6.8 MEQ/L | SODIUM [1]: 149.67 MEQ/L | TOTAL BILIRUBIN [1]: 0.78 mg/dL | TOTAL PROTEIN [1]: 6.28 G/DL | BASOPHIL [2]: 0% | EOSINOPHIL [2]: 0.17% | ERYTHROCYTE COUNT [2]: 6.72 x10E6/uL | HEMATOCRIT [2]: 40.02% | HEMOGLOBIN [2]: 15.83 G/DL | LEUKOCYTE COUNT [2]: 9.5 x10E3/uL | LYMPHOCYTE [2]: 87.17% | MEAN CORPUSCULAR HEMOGLOBIN [2]: 23.57 pg | MEAN CORPUSCULAR HEMOGLOBIN CONCENTRATION [2]: 39.62 G/DL | MEAN CORPUSCULAR VOLUME [2]: 59.55 fL | MONOCYTE [2]: 1.67% | NEUTROPHIL [2]: 11% | PLATELET COUNT [2]: 1053.67 x10E3/uL | ALANINE AMINOTRANSFERASE [2]: 26.33 u/L | ALBUMIN [2]: 4.02 G/DL | ALKALINE PHOSPHATASE [2]: 316.67 u/L | ASPARTATE AMINOTRANSFERASE [2]: 61.33 u/L | BLOOD UREA NITROGEN [2]: 18.67 mg/dL | CHLORIDE [2]: 108 MEQ/L | CHOLESTEROL [2]: 65.17 mg/dL | CREATINE PHOSPHOKINASE [2]: 161.17 u/L | CREATININE [2]: 0.75 mg/dL | GLUCOSE [2]: 177.33 mg/dL | PHOSPHORUS [2]: 9.72 mg/dL | POTASSIUM [2]: 6.18 MEQ/L | SODIUM [2]: 150.5 MEQ/L | TOTAL BILIRUBIN [2]: 0.68 mg/dL | TOTAL PROTEIN [2]: 6.55 G/DL | BASOPHIL [3]: 0% | EOSINOPHIL [3]: 0.33% | ERYTHROCYTE COUNT [3]: 6.08 x10E6/uL | HEMATOCRIT [3]: 36.9% | HEMOGLOBIN [3]: 14.87 G/DL | LEUKOCYTE COUNT [3]: 12.97 x10E3/uL | LYMPHOCYTE [3]: 73.67% | MEAN CORPUSCULAR HEMOGLOBIN [3]: 24.43 pg | MEAN CORPUSCULAR HEMOGLOBIN CONCENTRATION [3]: 40.3 G/DL | MEAN CORPUSCULAR VOLUME [3]: 60.63 fL | MONOCYTE [3]: 4.67% | NEUTROPHIL [3]: 21.33% | PLATELET COUNT [3]: 1074.33 x10E3/uL | ALANINE AMINOTRANSFERASE [3]: 32.33 u/L | ALBUMIN [3]: 3.7 G/DL | ALKALINE PHOSPHATASE [3]: 312.67 u/L | ASPARTATE AMINOTRANSFERASE [3]: 70.67 u/L | BLOOD UREA NITROGEN [3]: 16.67 mg/dL | CHLORIDE [3]: 102.67 MEQ/L | CHOLESTEROL [3]: 62.67 mg/dL | CREATINE PHOSPHOKINASE [3]: 163 u/L | CREATININE [3]: 0.7 mg/dL | GLUCOSE [3]: 161.33 mg/dL | PHOSPHORUS [3]: 10.17 mg/dL | POTASSIUM [3]: 6.4 MEQ/L | SODIUM [3]: 147 MEQ/L | TOTAL BILIRUBIN [3]: 0.57 mg/dL | TOTAL PROTEIN [3]: 5.87 G/DL | BASOPHIL [4]: 0% | EOSINOPHIL [4]: 0.5% | ERYTHROCYTE COUNT [4]: 6.19 x10E6/uL | HEMATOCRIT [4]: 36.1% | HEMOGLOBIN [4]: 14.4 G/DL | LEUKOCYTE COUNT [4]: 13.5 x10E3/uL | LYMPHOCYTE [4]: 85.5% | MEAN CORPUSCULAR HEMOGLOBIN [4]: 23.25 pg | MEAN CORPUSCULAR HEMOGLOBIN CONCENTRATION [4]: 39.9 G/DL | MEAN CORPUSCULAR VOLUME [4]: 58.3 fL | MONOCYTE [4]: 1.5% | NEUTROPHIL [4]: 12.5% | PLATELET COUNT [4]: 1096 x10E3/uL | ALANINE AMINOTRANSFERASE [4]: 36.5 u/L | ALBUMIN [4]: 3.75 G/DL | ALKALINE PHOSPHATASE [4]: 318 u/L | ASPARTATE AMINOTRANSFERASE [4]: 61.5 u/L | BLOOD UREA NITROGEN [4]: 14 mg/dL | CHLORIDE [4]: 104 MEQ/L | CHOLESTEROL [4]: 40.5 mg/dL | CREATINE PHOSPHOKINASE [4]: 138.5 u/L | CREATININE [4]: 0.55 mg/dL | GLUCOSE [4]: 161 mg/dL | PHOSPHORUS [4]: 10.3 mg/dL | POTASSIUM [4]: 6.15 MEQ/L | SODIUM [4]: 150 MEQ/L | TOTAL BILIRUBIN [4]: 0.55 mg/dL | TOTAL PROTEIN [4]: 6.2 G/DL | BASOPHIL [5]: 0% | EOSINOPHIL [5]: 1% | ERYTHROCYTE COUNT [5]: 6.37 x10E6/uL | HEMATOCRIT [5]: 38.8% | HEMOGLOBIN [5]: 15.33 G/DL | LEUKOCYTE COUNT [5]: 10.33 x10E3/uL | LYMPHOCYTE [5]: 83.67% | MEAN CORPUSCULAR HEMOGLOBIN [5]: 24.07 pg | MEAN CORPUSCULAR HEMOGLOBIN CONCENTRATION [5]: 39.53 G/DL | MEAN CORPUSCULAR VOLUME [5]: 60.9 fL | MONOCYTE [5]: 3.33% | NEUTROPHIL [5]: 12% | PLATELET COUNT [5]: 1127.67 x10E3/uL | ALANINE AMINOTRANSFERASE [5]: 31.33 u/L | ALBUMIN [5]: 3.87 G/DL | ALKALINE PHOSPHATASE [5]: 294.67 u/L | ASPARTATE AMINOTRANSFERASE [5]: 62.33 u/L | BLOOD UREA NITROGEN [5]: 14.33 mg/dL | CHLORIDE [5]: 103.67 MEQ/L | CHOLESTEROL [5]: 76 mg/dL | CREATINE PHOSPHOKINASE [5]: 156 u/L | CREATININE [5]: 0.7 mg/dL | GLUCOSE [5]: 185.67 mg/dL | PHOSPHORUS [5]: 12.2 mg/dL | POTASSIUM [5]: 7.33 MEQ/L | SODIUM [5]: 149.67 MEQ/L | TOTAL BILIRUBIN [5]: 0.53 mg/dL | TOTAL PROTEIN [5]: 6.23 G/DL | BASOPHIL [6]: 0% | EOSINOPHIL [6]: 0% | ERYTHROCYTE COUNT [6]: 6.33 x10E6/uL | HEMATOCRIT [6]: 38.27% | HEMOGLOBIN [6]: 15.1 G/DL | LEUKOCYTE COUNT [6]: 12.9 x10E3/uL | LYMPHOCYTE [6]: 81.33% | MEAN CORPUSCULAR HEMOGLOBIN [6]: 23.87 pg | MEAN CORPUSCULAR HEMOGLOBIN CONCENTRATION [6]: 39.47 G/DL | MEAN CORPUSCULAR VOLUME [6]: 60.5 fL | MONOCYTE [6]: 2.33% | NEUTROPHIL [6]: 16.33% | PLATELET COUNT [6]: 999.67 x10E3/uL | ALANINE AMINOTRANSFERASE [6]: 37 u/L | ALBUMIN [6]: 3.87 G/DL | ALKALINE PHOSPHATASE [6]: 349.67 u/L | ASPARTATE AMINOTRANSFERASE [6]: 67.67 u/L | BLOOD UREA NITROGEN [6]: 14 mg/dL | CHLORIDE [6]: 104 MEQ/L | CHOLESTEROL [6]: 70.33 mg/dL | CREATINE PHOSPHOKINASE [6]: 150.33 u/L | CREATININE [6]: 0.7 mg/dL | GLUCOSE [6]: 172 mg/dL | PHOSPHORUS [6]: 10.37 mg/dL | POTASSIUM [6]: 6.23 MEQ/L | SODIUM [6]: 149.67 MEQ/L | TOTAL BILIRUBIN [6]: 0.57 mg/dL | TOTAL PROTEIN [6]: 6.2 G/DL
